According to publication PMC6006164, “Natural cyclopeptide RA-V inhibits the NF-κB signaling pathway by targeting TAK1” (Cell Death & Disease, 2018):
pIC50: −log10 of the molar value.

What was measured:
Type in all cases: cell-based
[1] = test system: NF-κB signaling pathway; experiment: NF-κB-dependent luciferase reporter (5×κB-luciferase/pTK-Renilla), TNF-α-induced, HEK293T cells; details: HEK293T; RA-V 6 h, then 10 ng/mL TNF-α 2 h; three independent experiments; read-out: IC50, NF-κB-dependent luciferase reporter
Method: HEK293T or HeLa cells were seeded in 24-well plates and transiently transfected with the 5 × κB-luciferase and pTK-Renilla reporters using Lipofectamine 2000 (Invitrogen) for 18 h. The cells were then incubated with different concentrations of the compounds for the indicated times and subsequently stimulated with 10 ng/mL TNF-α for 2 h. The luciferase activity in the cell lysates was analyzed using the Dual Luciferase Reporter Assay System (Promega). The luciferase reporter assays were performed as previously described.
Supplementary Figure 1. RA-V has the best inhibitory effect on NF-κB signaling pathway among RAs. (a-b) HEK293T cells were transfected with the 5×κB-luciferase and pTK-Renilla reporters. Twenty-four hours after transfection, the cells were incubated with various concentrations of the indicated compounds for 6 h and then treated with 10 ng/ml TNF-α for 2 h before the luciferase activity assays. The data are presented as the means ± S.D. from three independent experiments. […]
Scheme for CB12 synthesis. (c) CB12 inhibited NF-κB reporter activity in a dose-dependent manner. The HEK293T cells were transfected with the 5×κB-luciferase and pTK-Renilla reporters. Twenty-four h after transfection, the cells were treated with various concentrations of CB12 for 6 h and then treated with 10 ng/ml TNF-α for 2 h before the luciferase activity assays. (d) […]
Supplementary Table 3: Screening data of small molecules
Category Parameter Description
Assay Type of assay Cell-based
Target NF-κB signaling pathway
Primary measurement Detection of Firefly luciferase enzyme activities and Renilla Luciferase expression
Key reagents 5 × κB-lucieferase and luciferase assay (Progema)
Assay protocol HEK293T cells were seeded in 24 -well plates and transiently transfected with 20 ng of 5×κB-luciferase and 2 ng of pTK-Renilla reporters using Lipofectamine
2000 (Invitrogen) for 18 h. The cells were then incubated with small molecules (10 μM) for 6 hours, and subsequently stimulated with 10 ng/ml TNF -α for 2 h. Luciferase activity of the cell lysates was analysed by the Dual Luciferase Reported Assay System
(Promega). The Firefly luciferase enzyme activities were determined for NF -κB signaling activities and normalized to Renilla Luciferase expression.
Library Library size approximately 200
Library composition natural and synthetic chemical compounds, including cyclopeptides, quinones and terpenes.
Source State Key Laboratory of Phytochemistry and Plant
Resources in West China, Kunming Institute of Botany, Chinese Academy of Sciences
Screen Format 24-well, Corning
Concentration(s) tested 10 μM
Reagent/ compound dispensing system Manual
Detection instrument and software Synergy 2 (BioTek)
Assay validation/QC Velcade inhibits NF-κB signaling pathway
Normalization The Firefly luciferase enzyme activities were normalized by Renilla Luciferase expression
Post-HTS analysis Hit criteria κB-luc/ Renilla ratio < 0.5 standard deviations from the […]
Hit rate Approximately 15%
Confirmation of hit purity and structure Compounds were verified by HPLC and NMR

[2] = test system: HEK293T and HeLa cells; experiment: MTT assay; details: under reporter-assay treatment, high concentrations
Method: (§1) Fig. 1 RA-V inhibits TNF-α- and LPS-induced activation of NF-κB. a Chemical structure of RA-V. b RA-V inhibited the NF-κB signaling pathway in a dose-dependent manner. HEK293T or HeLa cells were transfected with the 5 × κB-luciferase and pTK-Renilla reporters. Twenty-four hours after transfection, the cells were incubated with various concentrations of RA-V for 6 h, and then treated with 10 ng/mL TNF-α for 2 h before the luciferase activity assay and MTT assay. c RA-V reduced TNF-α-induced expression of NF-κB target genes. HEK293T or HeLa cells were treated with various concentrations of RA-V for 24 h and stimulated with 10 ng/mL TNF-α for 2 h. The expression of the NF-κB target genes, IL-8, MCP-1, and E-selectin was measured by quantitative RT-PCR and normalized to GADPH expression. d RA-V inhibited TNF-α-induced p65 phosphorylation, IκBα phosphorylation and IκBα degradation. […] The expression of IL-6 was measured. h RA-V inhibited LPS-induced p65 phosphorylation, IκBα phosphorylation. […] The protein expression was measured. i RA-V inhibited LPS-induced IL-6 production. […] The expression of IL-6 was measured.
HEK293T cells (5 × 10^3 cells/well) or HeLa cells (3 × 10^3 cells/well) were seeded in a 96-well plate with 100 μL medium and cultured for 12 h in a CO2 incubator. […] After 4 h, the medium was replaced with 150 μL DMSO, and the optical density was measured at […] (Molecular Devices). […]

[3] = test system: IL-8 production; experiment: TNF-α-induced IL-8 production, ELISA; details: HeLa; RA-V 12 h, 10 ng/mL TNF-α 2 h; ELISA of supernatant; dose-dependent
Method: as §1, with “degradation. HEK293T or HeLa cells were incubated with various concentrations of RA-V for 24 h and treated with 10 ng/mL TNF-α for 10 min. The cell lysates were prepared and subjected to western blot analysis with the indicated antibodies. e RA-V inhibited TNF-α-induced IL-8 production.” for “degradation.”

Substance: RA-V
- pIC50 [1]: 7.19
- antiproliferative effect (MTT) [2]: only a slight antiproliferative effect
- TNF-α-induced production of IL-8 [3]: inhibited
